Data taken from PMC10184127 (Journal of Medicinal Chemistry, 2023).

What was measured:
AgAChE1 = AgAChE1 (Anopheles gambiae, UniProt Q869C3)
[1] = at higher concentrations
hAChE = hAChE (Homo sapiens, UniProt P22303)
Chain of hAChE (P22303 32-614): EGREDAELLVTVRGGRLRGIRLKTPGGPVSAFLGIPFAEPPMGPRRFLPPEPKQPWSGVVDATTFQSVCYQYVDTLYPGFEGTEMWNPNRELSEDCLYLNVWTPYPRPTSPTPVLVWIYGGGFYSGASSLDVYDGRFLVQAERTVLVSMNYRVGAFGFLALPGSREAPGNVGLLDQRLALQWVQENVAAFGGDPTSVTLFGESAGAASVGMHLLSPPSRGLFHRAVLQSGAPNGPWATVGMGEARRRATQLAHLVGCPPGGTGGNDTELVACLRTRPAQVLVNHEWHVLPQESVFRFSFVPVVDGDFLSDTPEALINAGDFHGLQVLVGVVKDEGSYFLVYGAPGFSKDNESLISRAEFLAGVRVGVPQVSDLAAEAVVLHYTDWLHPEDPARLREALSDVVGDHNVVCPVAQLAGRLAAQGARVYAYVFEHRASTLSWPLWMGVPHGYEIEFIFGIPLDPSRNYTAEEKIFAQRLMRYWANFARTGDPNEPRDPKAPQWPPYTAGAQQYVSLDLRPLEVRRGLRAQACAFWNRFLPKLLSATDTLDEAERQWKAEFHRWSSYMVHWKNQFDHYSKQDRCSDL

Chain of AgAChE1 (Q869C3 39-737): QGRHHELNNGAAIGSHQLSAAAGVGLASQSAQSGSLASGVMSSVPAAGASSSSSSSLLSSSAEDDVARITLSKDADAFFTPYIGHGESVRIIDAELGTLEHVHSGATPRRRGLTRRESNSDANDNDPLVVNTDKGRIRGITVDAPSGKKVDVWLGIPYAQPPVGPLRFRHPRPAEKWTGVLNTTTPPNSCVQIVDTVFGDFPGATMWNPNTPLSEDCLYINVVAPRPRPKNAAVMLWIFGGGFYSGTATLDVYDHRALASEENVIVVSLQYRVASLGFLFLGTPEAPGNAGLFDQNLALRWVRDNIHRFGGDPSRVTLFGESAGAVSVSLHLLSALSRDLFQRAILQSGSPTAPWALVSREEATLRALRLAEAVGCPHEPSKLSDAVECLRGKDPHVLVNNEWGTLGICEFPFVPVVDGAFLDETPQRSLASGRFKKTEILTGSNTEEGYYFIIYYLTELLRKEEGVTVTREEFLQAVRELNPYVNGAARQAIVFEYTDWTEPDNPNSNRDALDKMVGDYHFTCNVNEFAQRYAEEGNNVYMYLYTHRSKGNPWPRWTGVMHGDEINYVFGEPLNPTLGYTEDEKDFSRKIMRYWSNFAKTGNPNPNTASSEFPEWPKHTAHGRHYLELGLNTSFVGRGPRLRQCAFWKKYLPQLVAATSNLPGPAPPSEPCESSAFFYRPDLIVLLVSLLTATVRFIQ

## O=C1CSC(c2ccccc2)N1CCc1ccc(F)cc1 (stereo not drawn) [compound 9, 3-(4-Fluorophenethyl)-2-phenylthiazolidin-4-one]
AgAChE1
  IC50 (μM) AgAChE1: Inactive
  inhibitory activity towards AgAChE1: no detectable inhibitory activity

## [N-]=[N+]=NCCCN1C(=O)CSC1c1ccccc1 (stereo not drawn) [compound 17, 3-(3-Azidopropyl)-2-phenylthiazolidin-4-one]
AgAChE1
  IC50 (μM) AgAChE1: Inactive
  inhibitory activity towards AgAChE1: no detectable inhibitory activity

## CN(C)CCCN1C(=O)CSC1c1cccc2ccccc12.Cl (stereo not drawn) [compound 36, 3-(3-(Dimethylamino)propyl)-2-(naphthalen-1-yl)thiazolidin-4-one Hydrochloride]
[1]
  solubility: reduced its solubility at higher concentrations

## CN(C)CCN1C(=O)CSC1c1ccc(F)cc1.Cl (stereo not drawn) [compound 37, 3-(2-(Dimethylamino)ethyl)-2-(4-fluorophenyl)thiazolidin-4-one Hydrochloride]
hAChE
  activity against hAChE: inactive

## CN(C)CCN1C(=O)CSC1c1ccc(Cl)cc1Cl.Cl (stereo not drawn) [compound 38, 2-(2,4-Dichlorophenyl)-3-(2-(dimethylamino)ethyl)thiazolidin-4-one Hydrochloride]
hAChE
  activity against hAChE: inactive

## CN(C)CCN1C(=O)CSC1c1cccc(F)c1F.Cl (stereo not drawn) [compound 39, 2-(2,3-Difluorophenyl)-3-(2-(dimethylamino)ethyl)thiazolidin-4-one Hydrochloride]
hAChE
  activity against hAChE: inactive

## CN(C)CCN1C(=O)CSC1c1cccc2ccccc12.Cl (stereo not drawn) [compound 40, 3-(2-(Dimethylamino)ethyl)-2-(naphthalen-1-yl)thiazolidin-4-one Hydrochloride]
hAChE
  activity against hAChE: inactive

## CC(C)NCCN1C(=O)CSC1c1cccc2ccccc12.Cl (stereo not drawn) [compound 43, 3-(2-(Isopropylamino)ethyl)-2-(naphthalen-1-yl)thiazolidin-4-one Hydrochloride]
AgAChE1
  times weaker binders than their tertiary amine analogues: over 10 times

## Cl.O=C1CSC(c2ccc(F)cc2)N1CCNC1CC1 (stereo not drawn) [compound 49, 3-(2-(Cyclopropylamino)ethyl)-2-(4-fluorophenyl)thiazolidin-4-one Hydrochloride]
AgAChE1
  loss of potency vs 3-carbon chain dimethylamine analogue: 13 fold

## CNCCN1C(=O)CSC1c1cccc2ccccc12.Cl (stereo not drawn) [compound 54, N-Methyl-2-(2-(naphthalen-1-yl)-4-oxothiazolidin-3-yl)ethan-1-aminium Chloride]
AgAChE1
  times weaker binders than their tertiary amine analogues: over 10 times
